From PubChem BioAssay AID1918936 (Molecular Pharmacology Branch, DTP, NCI, 2023)

Tested on: 349418-098-R-PDC complex spheroid viability
Assay: Anticancer human tumor 349418-098-R-PDC patient-derived lung adenocarcinoma cell line growth inhibition
Settings: for IC50: curve of first compound; for viability, T/C: stronger effect = lower value
Method in brief: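 Drug combinations with the LSD1 inhibitor iadademstat tested on tumor cells co-cultured as spheroids with endothelial cells and mesenchymal stem cells. Concentrations descended in half-log increments from clinical Cmax or 10 microM.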

[1] = second compound 0.1 µM, first compound 0.0316 µM
[2] = second compound 0.1 µM, first compound 0.1 µM
[3] = second compound 0.1 µM, first compound 0.316 µM
[4] = second compound 0.1 µM, first compound 1 µM
[5] = second compound 0.1 µM, first compound 3.16 µM
[6] = second compound 0.1 µM, first compound 10 µM
[7] = second compound 0.316 µM, first compound 0.0316 µM
[8] = second compound 0.316 µM, first compound 0.1 µM
[9] = second compound 0.316 µM, first compound 0.316 µM
[10] = second compound 0.316 µM, first compound 1 µM
[11] = second compound 0.316 µM, first compound 3.16 µM
[12] = second compound 0.316 µM, first compound 10 µM
[13] = second compound 1 µM, first compound 0.0316 µM
[14] = second compound 1 µM, first compound 0.1 µM
[15] = second compound 1 µM, first compound 0.316 µM
[16] = second compound 1 µM, first compound 1 µM
[17] = second compound 1 µM, first compound 3.16 µM
[18] = second compound 1 µM, first compound 10 µM
[19] = second compound 3.16 µM, first compound 0.0316 µM
[20] = second compound 3.16 µM, first compound 0.1 µM
[21] = second compound 3.16 µM, first compound 0.316 µM
[22] = second compound 3.16 µM, first compound 1 µM
[23] = second compound 3.16 µM, first compound 3.16 µM
[24] = second compound 3.16 µM, first compound 10 µM
[25] = second compound 10 µM, first compound 0.0316 µM
[26] = second compound 10 µM, first compound 0.1 µM
[27] = second compound 10 µM, first compound 0.316 µM
[28] = second compound 10 µM, first compound 1 µM
[29] = second compound 10 µM, first compound 3.16 µM
[30] = second compound 10 µM, first compound 10 µM
[31] = second compound 0.1 µM, first compound 0.00949 µM
[32] = second compound 0.1 µM, first compound 0.03 µM
[33] = second compound 0.1 µM, first compound 0.0949 µM
[34] = second compound 0.1 µM, first compound 0.3 µM
[35] = second compound 0.316 µM, first compound 0.00949 µM
[36] = second compound 0.316 µM, first compound 0.03 µM
[37] = second compound 0.316 µM, first compound 0.0949 µM
[38] = second compound 0.316 µM, first compound 0.3 µM
[39] = second compound 1 µM, first compound 0.00949 µM
[40] = second compound 1 µM, first compound 0.03 µM
[41] = second compound 1 µM, first compound 0.0949 µM
[42] = second compound 1 µM, first compound 0.3 µM
[43] = second compound 3.16 µM, first compound 0.00949 µM
[44] = second compound 3.16 µM, first compound 0.03 µM
[45] = second compound 3.16 µM, first compound 0.0949 µM
[46] = second compound 3.16 µM, first compound 0.3 µM
[47] = second compound 10 µM, first compound 0.00949 µM
[48] = second compound 10 µM, first compound 0.03 µM
[49] = second compound 10 µM, first compound 0.0949 µM
[50] = second compound 10 µM, first compound 0.3 µM
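Note: spheroids exposed to agents for seven days before readout.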
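Throughout, for viability, T/C: 100% = DMSO vehicle control wells.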

CC1(C)CCC(CN2CCN(c3ccc(C(=O)NS(=O)(=O)c4ccc(NCC5CCOCC5)c([N+](=O)[O-])c4)c(Oc4cnc5[nH]ccc5c4)c3)CC2)=C(c2ccc(Cl)cc2)C1 + NC1CCC(NC2CC2c2ccccc2)CC1
IC50 (second compound 0.1 µM): 4.25 µM | IC50 (second compound 0.316 µM): 4.54 µM | IC50 (second compound 1 µM): 4.3 µM | IC50 (second compound 3.16 µM): 4.55 µM | IC50 (second compound 10 µM): 4.24 µM | viability, T/C [1]: 110% | viability, T/C [2]: 110% | viability, T/C [3]: 99.3% | viability, T/C [4]: 96.3% | viability, T/C [5]: 62.5% | viability, T/C [6]: 11.8% | viability, T/C [7]: 115% | viability, T/C [8]: 105% | viability, T/C [9]: 103% | viability, T/C [10]: 103% | viability, T/C [11]: 67.9% | viability, T/C [12]: 11.7% | viability, T/C [13]: 108% | viability, T/C [14]: 111% | viability, T/C [15]: 105% | viability, T/C [16]: 96.1% | viability, T/C [17]: 64.4% | viability, T/C [18]: 10.4% | viability, T/C [19]: 103% | viability, T/C [20]: 101% | viability, T/C [21]: 104% | viability, T/C [22]: 94.1% | viability, T/C [23]: 67.7% | viability, T/C [24]: 12% | viability, T/C [25]: 62.9% | viability, T/C [26]: 81.2% | viability, T/C [27]: 91% | viability, T/C [28]: 87.4% | viability, T/C [29]: 63% | viability, T/C [30]: 11.9%

CC1COCCN1c1cc(C2(S(C)(=N)=O)CC2)nc(-c2ccnc3[nH]ccc23)n1 (stereo not given) + NC1CCC(NC2CC2c2ccccc2)CC1
IC50 (second compound 0.1 µM): 0.371 µM | IC50 (second compound 0.316 µM): 0.508 µM | IC50 (second compound 1 µM): 0.487 µM | IC50 (second compound 3.16 µM): 0.361 µM | IC50 (second compound 10 µM): 0.433 µM | viability, T/C [1]: 115% | viability, T/C [2]: 115% | viability, T/C [3]: 55.5% | viability, T/C [4]: 16.1% | viability, T/C [5]: 11% | viability, T/C [6]: 8.02% | viability, T/C [7]: 120% | viability, T/C [8]: 101% | viability, T/C [9]: 72.5% | viability, T/C [10]: 19.6% | viability, T/C [11]: 9.52% | viability, T/C [12]: 8.34% | viability, T/C [13]: 114% | viability, T/C [14]: 104% | viability, T/C [15]: 68.6% | viability, T/C [16]: 19.2% | viability, T/C [17]: 10.2% | viability, T/C [18]: 7.6% | viability, T/C [19]: 116% | viability, T/C [20]: 113% | viability, T/C [21]: 53.6% | viability, T/C [22]: 18.1% | viability, T/C [23]: 10.3% | viability, T/C [24]: 7.61% | viability, T/C [25]: 107% | viability, T/C [26]: 87.3% | viability, T/C [27]: 65.7% | viability, T/C [28]: 15.8% | viability, T/C [29]: 9.23% | viability, T/C [30]: 5.82%

CCN(c1cc(-c2ccc(CN3CCOCC3)cc2)cc(C(=O)NCc2c(C)cc(C)[nH]c2=O)c1C)C1CCOCC1 + NC1CCC(NC2CC2c2ccccc2)CC1
IC50 (second compound 0.1 µM): > 3 µM | IC50 (second compound 0.316 µM): > 3 µM | IC50 (second compound 1 µM): > 3 µM | IC50 (second compound 3.16 µM): > 3 µM | IC50 (second compound 10 µM): 0.64 µM | viability, T/C [31]: 107% | viability, T/C [32]: 93.5% | viability, T/C [33]: 82.9% | viability, T/C [34]: 70.5% | viability, T/C (second compound 0.1 µM, first compound 0.949 µM): 59.3% | viability, T/C (second compound 0.1 µM, first compound 3 µM): 60% | viability, T/C [35]: 99.1% | viability, T/C [36]: 105% | viability, T/C [37]: 90.1% | viability, T/C [38]: 77.5% | viability, T/C (second compound 0.316 µM, first compound 0.949 µM): 69.3% | viability, T/C (second compound 0.316 µM, first compound 3 µM): 62.2% | viability, T/C [39]: 106% | viability, T/C [40]: 88.7% | viability, T/C [41]: 98% | viability, T/C [42]: 75.6% | viability, T/C (second compound 1 µM, first compound 0.949 µM): 75.3% | viability, T/C (second compound 1 µM, first compound 3 µM): 57% | viability, T/C [43]: 106% | viability, T/C [44]: 87.6% | viability, T/C [45]: 81% | viability, T/C [46]: 68.3% | viability, T/C (second compound 3.16 µM, first compound 0.949 µM): 55.6% | viability, T/C (second compound 3.16 µM, first compound 3 µM): 59.5% | viability, T/C [47]: 79% | viability, T/C [48]: 91.2% | viability, T/C [49]: 64.9% | viability, T/C [50]: 59.7% | viability, T/C (second compound 10 µM, first compound 0.949 µM): 47.4% | viability, T/C (second compound 10 µM, first compound 3 µM): 34.5%

Nc1ncn(C2CC(O)C(CO)S2)c(=O)n1 (stereo not given) + NC1CCC(NC2CC2c2ccccc2)CC1
IC50 (second compound 0.1 µM): 0.0185 µM | IC50 (second compound 0.316 µM): 0.0192 µM | IC50 (second compound 1 µM): 0.0203 µM | IC50 (second compound 3.16 µM): 0.0192 µM | IC50 (second compound 10 µM): 0.0124 µM | viability, T/C (second compound 0.1 µM, first compound 0.000949 µM): 107% | viability, T/C (second compound 0.1 µM, first compound 0.003 µM): 85.5% | viability, T/C [31]: 71.7% | viability, T/C [32]: 34.7% | viability, T/C [33]: 19.6% | viability, T/C [34]: 8.78% | viability, T/C (second compound 0.316 µM, first compound 0.000949 µM): 104% | viability, T/C (second compound 0.316 µM, first compound 0.003 µM): 100% | viability, T/C [35]: 71.6% | viability, T/C [36]: 35.9% | viability, T/C [37]: 16.1% | viability, T/C [38]: 9.32% | viability, T/C (second compound 1 µM, first compound 0.000949 µM): 117% | viability, T/C (second compound 1 µM, first compound 0.003 µM): 96.2% | viability, T/C [39]: 74.3% | viability, T/C [40]: 38.1% | viability, T/C [41]: 16.1% | viability, T/C [42]: 8.39% | viability, T/C (second compound 3.16 µM, first compound 0.000949 µM): 97.5% | viability, T/C (second compound 3.16 µM, first compound 0.003 µM): 89.8% | viability, T/C [43]: 73.4% | viability, T/C [44]: 34.8% | viability, T/C [45]: 15.6% | viability, T/C [46]: 7.02% | viability, T/C (second compound 10 µM, first compound 0.000949 µM): 75.8% | viability, T/C (second compound 10 µM, first compound 0.003 µM): 86% | viability, T/C [47]: 51.1% | viability, T/C [48]: 30.3% | viability, T/C [49]: 16% | viability, T/C [50]: 7.62%
